# Columns and labels:
# S. aureus ATCC 29213 = experiment: MIC/MBC testing (Example 5); assay type: cell-based; conditions: Staphylococcus aureus, ATCC29213; Example 5; read-out: MIC
# S. pyogenes MMX 404 = experiment: MIC/MBC testing (Example 5); assay type: cell-based; conditions: Streptococcus pyogenes, MMX404; Example 5; read-out: MIC
# E. coli ATCC 25922 = experiment: MIC/MBC testing (Example 5); assay type: cell-based
# E. faecalis ATCC 29212 = experiment: MIC/MBC testing (Example 5); assay type: cell-based; conditions: Enterococcus faecalis, ATCC29212; Example 5; read-out: MIC
# S. aureus MMX 757 = experiment: MIC/MBC testing (Example 5); assay type: cell-based; conditions: Staphylococcus aureus, MMX757; Example 5; read-out: MIC
# E. faecalis MMX 848 = experiment: MIC/MBC testing (Example 5); assay type: cell-based; conditions: Enterococcus faecalis, MMX848; Example 5; read-out: MIC
# S. pneumoniae ATCC 49619 = experiment: MIC/MBC testing (Example 5); assay type: cell-based; conditions: Streptococcus pneumoniae, ATCC49619; Example 5; read-out: MIC
# [1] = test system: Enterococcus faecalis (VRE); experiment: microbe, parasite or virus in culture; assay type: cell-based; conditions: Example 1; isolate MMX 848
# [2] = test system: Staphylococcus aureus (MRSA); experiment: microbe, parasite or virus in culture; assay type: cell-based; conditions: Example 1; isolate MMX 757
# Bifidobacterium longum = experiment: Broth microdilution MIC, anaerobic bacteria (Example 1); assay type: cell-based; conditions: Example 1; isolate MMX 3968
# Aspergillus fumigatus = experiment: Broth microdilution MIC, yeast and fungi (Example 1); assay type: cell-based; conditions: isolate MMX 5280 (ATCC MYA-3626)
# [3] = test system: Enterococcus faecalis (VSE); experiment: Broth microdilution MIC, aerobic bacteria (Example 1); assay type: cell-based; conditions: isolate MMX 101 (ATCC 29212)
# Streptococcus pyogenes = experiment: as above; assay type: cell-based; conditions: isolate MMX 404
# Bacteroides fragilis = experiment: Broth microdilution MIC, anaerobic bacteria (Example 1); assay type: cell-based; conditions: Example 1; isolate MMX 123 (ATCC 5285)
# Escherichia coli = experiment: Broth microdilution MIC, aerobic bacteria (Example 1); assay type: cell-based; conditions: isolate MMX 102 (ATCC 25922)
# Bifidobacterium bifidum = experiment: Broth microdilution MIC, anaerobic bacteria (Example 1); assay type: cell-based; conditions: Example 1; isolate MMX 3965
# Clostridium difficile = experiment: as above; assay type: cell-based; conditions: Example 1
# Candida parapsilosis = experiment: Broth microdilution MIC, yeast and fungi (Example 1); assay type: cell-based
# Lactobacillus jensenii = experiment: Broth microdilution MIC, anaerobic bacteria (Example 1); assay type: cell-based; conditions: Example 1; isolate MMX 4149
# Streptococcus pneumoniae = experiment: Broth microdilution MIC, aerobic bacteria (Example 1); assay type: cell-based; conditions: Example 1; isolate MMX 1195 (ATCC 49619)
# Pseudomonas aeruginosa = experiment: as above; assay type: cell-based; conditions: Example 1; isolate MMX 1380
# [4] = test system: Staphylococcus aureus (MSSA); experiment: as above; assay type: cell-based; conditions: isolate MMX 100 (ATCC 29213)
# Lactobacillus crispatus = experiment: Broth microdilution MIC, anaerobic bacteria (Example 1); assay type: cell-based; conditions: Example 1; isolate MMX 4147
# [5] = test system: Klebsiella pneumoniae (KPC-2); assay type: cell-based; conditions: Example 1; isolate MMX 4683
# [6] = Compound precipitation in uninoculated solubility controls (Example 1); assay type: physicochemical; design: key to precipitation observed (type): NA: not applicable (no precipitation observed); TRP: trace precipitate; DCP: distinct precipitate
# Method: Plates were stacked 3-4 high, covered with a lid on the top plate, placed in plastic bags, and incubated at 35° C. for approximately 16 to 20 hr (aerobes), 20 to 24 hr (Streptococcus), and 24 and 48 hr (fungi). Anaerobe plates were stacked, covered with a lid on the top plate, placed in a BD GasPak EZ Anaerobe Container System and incubated at 35° C. for 48 hr. Following incubation, the microplates were removed from the incubator and viewed from the bottom using a plate viewer. […] The MIC was read and recorded as the lowest concentration of drug that inhibited visible growth of the organism.
# [7] = Bioavailability assay: VB110 and CBD decoupling analysis of intestinal contents (Example 2); assay type: in vivo; conditions: mice, oral gavage 120 mg/kg VB110
# Method: In order to investigate the effectiveness of glycosylation to effect site-specific drug delivery, VB110 was administered to three mice by oral gavage and the animals sacrificed at 30, 60, and 90 minutes. Eight-week old male Swiss mice were fasted for 12 hours prior to administration of 120 mg/kg VB110 in 10% Ethanol USP, 10% Propylene Glycol USP, 0.05% Sodium Deoxycholate USP, 79.95% Saline USP. Following termination and tissue harvest, the intestinal contents were then extracted and analyzed by C18 reverse phase HPLC. […] This decoupling of VB110 is consistent with the large intestinal decoupling seen for sennoside beta-glycosides and is the result of secreted beta-glycosidases from the large intestinal microflora.
# Acinetobacter baumannii = experiment: Broth microdilution MIC, aerobic bacteria (Example 1); assay type: cell-based; conditions: Example 1; isolate MMX 1630
smiles,measurement,setting,value
C[C@@H](O)[C@H]1C(=O)N2C(C(=O)O)=C(SCCN=CN)C[C@H]12 [Imipenem],MIC,S. aureus ATCC 29213,0.015 µg/mL
same,MIC,S. pyogenes MMX 404,≤ 0.008 µg/mL
same,MBC,"E. coli ATCC 25922; Escherichia coli, ATCC25922, Example 5, quality control MBC test",0.12 µg/mL
same,MIC,"E. coli ATCC 25922; Escherichia coli, ATCC25922, Example 5, read-out: MIC",0.12 µg/mL
same,MBC:MIC,E. coli ATCC 25922; ratios of 1-4 are indicative of bactericidal activity,1
same,MIC,E. faecalis ATCC 29212,0.5 µg/mL
same,MIC,S. aureus MMX 757,4 µg/mL
same,MIC,E. faecalis MMX 848,1 µg/mL
same,MIC,S. pneumoniae ATCC 49619,0.015 µg/mL
C=C(C)[C@@H]1CCC(C)=C[C@H]1c1c(O[C@@H]2O[C@H](CO)[C@@H](O)[C@H](O)[C@H]2O)cc(CCCCC)cc1O[C@@H]1O[C@H](CO)[C@@H](O)[C@H](O)[C@H]1O [VB110],MIC,[1],>256 µg/mL
same,MIC,[2],>256 µg/mL
same,MIC,Bifidobacterium longum,>256 µg/mL
same,MIC at 24 hr,Aspergillus fumigatus; 24 hr,">256, μg/mL"
same,MIC at 48 hr,Aspergillus fumigatus; 48 hr,>256 µg/mL
same,MIC,[3],>256 µg/mL
same,MIC,Streptococcus pyogenes,>256 µg/mL
same,MIC,Bacteroides fragilis,>256 µg/mL
same,MIC,Escherichia coli,>256 µg/mL
same,MIC,Bifidobacterium bifidum,>256 µg/mL
same,MIC,Clostridium difficile; isolate MMX 4381 (ATCC 00057),>256 µg/mL
same,MIC,Clostridium difficile; isolate MMX 8330,>256 µg/mL
same,MIC,Clostridium difficile; isolate MMX 8333,>256 µg/mL
same,inhibition of growth relative to the growth control,"Candida parapsilosis; 24 and 48 hr, concentrations >16 μg/mL",50%
same,MIC at 24 hr,"Candida parapsilosis; Example 1, 24 hr, isolate MMX 2323 (ATCC 22019)",">256^2, μg/mL"
same,MIC at 48 hr,"Candida parapsilosis; Example 1, 48 hr, isolate MMX 2323 (ATCC 22019)",>256^2 μg/mL
same,MIC,Lactobacillus jensenii,>256 µg/mL
same,MIC,Streptococcus pneumoniae,>256 µg/mL
same,MIC,Pseudomonas aeruginosa,>256 µg/mL
same,MIC,[4],>256 µg/mL
same,MIC,Lactobacillus crispatus,>256 µg/mL
same,MIC,[5],>256 µg/mL
same,precipitation observed (type),[6]; MHB II,none
same,lowest concentration at which precipitation was observed,[6]; RPMI,32 µg/mL
same,precipitation observed (type),[6]; RPMI,TRP
same,small intestinal contents (HPLC),"[7]; 30, 60, and 90 minutes","intact VB110, but no decoupled CBD"
same,large intestinal contents (HPLC),[7]; 60 and 90 minute time points,contained both VB110 and CBD
same,MIC,Acinetobacter baumannii,>256 µg/mL

# — patent US11207291B2, “Antimicrobial compositions comprising cannabinoids and methods of using the same” (Graphium Biosciences, Inc., priority 2017, dated 2021)
